Results taken from ChEMBL document CHEMBL1201862, “PubChem BioAssay data set” (2004).
Where a name gives a salt, the structure may show the parent alone.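 Interpolation was linear, between the two tested concentrations surrounding the appropriate level; five concentrations were tested over 48 hours in 96-well plates. Abbreviation: GI50, concentration required for 50% inhibition of growth.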 The source made the active and inactive calls. Rule as the data show it: active = GI50 up to about 1.1 µM and inactive = higher.

Legend:
Assay in all cases: NCI-60 cell line screen, 48 h
ACHN = tested on: ACHN
BT-549 = tested on: BT-549
CCRF-CEM = tested on: CCRF-CEM
HOP-62 = tested on: HOP-62
Hs-578T = tested on: Hs-578T
KM12 = tested on: KM12
M14 = tested on: M14
MOLT-4 = tested on: MOLT-4
NCI-H226 = tested on: NCI-H226
NCI-H522 = tested on: NCI-H522
NCI/ADR-RES = tested on: NCI/ADR-RES
OVCAR-3 = tested on: OVCAR-3
SF-268 = tested on: SF-268
SF-295 = tested on: SF-295
SK-MEL-28 = tested on: SK-MEL-28
SNB-75 = tested on: SNB-75
SW-620 = tested on: SW-620
TK-10 = tested on: TK-10
U-251 = tested on: U-251
UACC-257 = tested on: UACC-257

Row | SMILES | GI50 (ACHN) | GI50 (BT-549) | GI50 (CCRF-CEM) | GI50 (HOP-62) | GI50 (Hs-578T) | GI50 (KM12) | GI50 (M14) | GI50 (MOLT-4) | GI50 (NCI-H226) | GI50 (NCI-H522) | GI50 (NCI/ADR-RES) | GI50 (OVCAR-3) | GI50 (SF-268) | GI50 (SF-295) | GI50 (SK-MEL-28) | GI50 (SNB-75) | GI50 (SW-620) | GI50 (TK-10) | GI50 (U-251) | GI50 (UACC-257)
1 | O=C(NCc1ccccc1)c1nn[nH]c1O | > 100 µM (inactive) | > 100 µM (inactive) | > 100 µM (inactive) | > 100 µM (inactive) | > 100 µM (inactive) | > 100 µM (inactive) | > 100 µM (inactive) | > 100 µM (inactive) | > 100 µM (inactive) | > 100 µM (inactive) | > 100 µM (inactive) | > 100 µM (inactive) | > 100 µM (inactive) | > 100 µM (inactive) | > 100 µM (inactive) | > 100 µM (inactive) | > 100 µM (inactive) | > 100 µM (inactive) | > 100 µM (inactive) | > 100 µM (inactive)
2 | CC(C(=O)O)C(C)(O)C(=O)O (configuration not stated) | – | > 100 µM (inactive) | > 100 µM (inactive) | – | > 100 µM (inactive) | > 100 µM (inactive) | > 100 µM (inactive) | > 100 µM (inactive) | > 100 µM (inactive) | > 100 µM (inactive) | > 100 µM (inactive) | > 100 µM (inactive) | > 100 µM (inactive) | – | > 100 µM (inactive) | > 100 µM (inactive) | > 100 µM (inactive) | > 100 µM (inactive) | > 100 µM (inactive) | > 100 µM (inactive)
3 | CCCCCC(/C=N/NC(N)=S)C(O)(C(F)(F)F)C(F)(F)F (configuration not stated) | > 10 µM (inactive) | > 10 µM (inactive) | > 10 µM (inactive) | > 10 µM (inactive) | > 10 µM (inactive) | > 10 µM (inactive) | > 10 µM (inactive) | > 10 µM (inactive) | > 10 µM (inactive) | > 10 µM (inactive) | > 10 µM (inactive) | > 10 µM (inactive) | > 10 µM (inactive) | > 10 µM (inactive) | > 10 µM (inactive) | > 10 µM (inactive) | > 10 µM (inactive) | > 10 µM (inactive) | > 10 µM (inactive) | > 10 µM (inactive)
4 | CC(C)C[C@H]1C(=O)N2CCC[C@H]2[C@]2(O)O[C@](NC(=O)[C@@H]3C=C4c5cccc6[nH]c(Br)c(c56)C[C@H]4N(C)C3)(C(C)C)C(=O)N12 [BROMOCRIPTINE MESYLATE] | 13 µM (inactive) | > 100 µM (inactive) | 4.56 µM (inactive) | > 100 µM (inactive) | 25.2 µM (inactive) | 9.82 µM (inactive) | 61.1 µM (inactive) | 4.34 µM (inactive) | 51.2 µM (inactive) | 34 µM (inactive) | 9.35 µM (inactive) | 8.87 µM (inactive) | 59.6 µM (inactive) | 39.8 µM (inactive) | > 100 µM (inactive) | 40.9 µM (inactive) | 72.6 µM (inactive) | 15.1 µM (inactive) | 35.8 µM (inactive) | 49.5 µM (inactive)
5 | CC(=N/NC(=S)N1CCCCC1)/C(C)=N\NC(=S)N1CCCCC1 | 1.55 µM (inactive) | 1.92 µM (inactive) | – | 1.79 µM (inactive) | 1.85 µM (inactive) | 1.82 µM (inactive) | 2.19 µM (inactive) | 2.13 µM (inactive) | 1.57 µM (inactive) | 2.09 µM (inactive) | 2.42 µM (inactive) | 1.74 µM (inactive) | 1.67 µM (inactive) | 1.71 µM (inactive) | 2.08 µM (inactive) | 1.45 µM (inactive) | 2.14 µM (inactive) | 1.77 µM (inactive) | 1.97 µM (inactive) | 1.87 µM (inactive)
6 | O=C(Nc1sccc1S(=O)(=O)c1ccc(Cl)cc1)C(F)(F)F | 43 µM (inactive) | 58.5 µM (inactive) | – | 37.4 µM (inactive) | 18.7 µM (inactive) | 13.4 µM (inactive) | 38.3 µM (inactive) | 15 µM (inactive) | 29.6 µM (inactive) | 8.63 µM (inactive) | 18.4 µM (inactive) | 31 µM (inactive) | 17.5 µM (inactive) | 26.3 µM (inactive) | 74.3 µM (inactive) | 20.9 µM (inactive) | 53.2 µM (inactive) | 78.7 µM (inactive) | 34.6 µM (inactive) | 32.7 µM (inactive)
7 | CCCCc1c2c(nc3c1CCCC3O)CCCC2 (configuration not stated) | 80 µM (inactive) | > 100 µM (inactive) | 72.6 µM (inactive) | > 100 µM (inactive) | > 100 µM (inactive) | > 100 µM (inactive) | > 100 µM (inactive) | 71 µM (inactive) | > 100 µM (inactive) | > 100 µM (inactive) | > 100 µM (inactive) | 71.8 µM (inactive) | > 100 µM (inactive) | > 100 µM (inactive) | – | > 100 µM (inactive) | > 100 µM (inactive) | > 100 µM (inactive) | > 100 µM (inactive) | > 100 µM (inactive)
8 | Cc1ccc(N2CCc3c(C)c(C#N)c4nc5ccccc5n4c32)cc1 | > 100 µM (inactive) | > 100 µM (inactive) | > 100 µM (inactive) | 36.6 µM (inactive) | 16 µM (inactive) | – | – | – | > 100 µM (inactive) | 9.04 µM (inactive) | > 100 µM (inactive) | > 100 µM (inactive) | 31.8 µM (inactive) | 41.6 µM (inactive) | > 100 µM (inactive) | 22.7 µM (inactive) | 85.9 µM (inactive) | > 100 µM (inactive) | 38.8 µM (inactive) | > 100 µM (inactive)
9 | CC(=O)OC(Cc1ccc2ccccc2n1)(C(F)(F)F)C(F)(F)F | 3.78 µM (inactive) | 1.6 µM (inactive) | 0.0728 µM (active) | 10.4 µM (inactive) | 1.35 µM (inactive) | 4.7 µM (inactive) | 1.23 µM (inactive) | 0.0796 µM (active) | 1.76 µM (inactive) | 0.519 µM (active) | 1.72 µM (inactive) | 0.676 µM (active) | 2.17 µM (inactive) | 4.5 µM (inactive) | 1.42 µM (inactive) | 4.36 µM (inactive) | 0.426 µM (active) | 0.33 µM (active) | 5.74 µM (inactive) | –
10 | COP(=O)(/C=C/C(NC(=O)C(Cl)(Cl)Cl)c1ccccc1)OC (configuration not stated) | > 100 µM (inactive) | > 100 µM (inactive) | – | > 100 µM (inactive) | > 100 µM (inactive) | > 100 µM (inactive) | > 100 µM (inactive) | > 100 µM (inactive) | > 100 µM (inactive) | > 100 µM (inactive) | > 100 µM (inactive) | > 100 µM (inactive) | > 100 µM (inactive) | > 100 µM (inactive) | > 100 µM (inactive) | > 100 µM (inactive) | > 100 µM (inactive) | > 100 µM (inactive) | > 100 µM (inactive) | > 100 µM (inactive)
11 | COC(=O)c1c(C)cccc1C1CN=NC12Cc1cccc(C)c1C2=O (configuration not stated) | 27.4 µM (inactive) | 23.6 µM (inactive) | 19.8 µM (inactive) | 53.6 µM (inactive) | > 100 µM (inactive) | 31.7 µM (inactive) | 10.4 µM (inactive) | – | 20.9 µM (inactive) | 15.9 µM (inactive) | 21.7 µM (inactive) | – | 83.4 µM (inactive) | – | 29.6 µM (inactive) | 38.4 µM (inactive) | 43.2 µM (inactive) | 35 µM (inactive) | 39.4 µM (inactive) | 19.6 µM (inactive)
12 | CN1CCN(CCCNN)CC1 | > 100 µM (inactive) | > 100 µM (inactive) | – | > 100 µM (inactive) | > 100 µM (inactive) | > 100 µM (inactive) | > 100 µM (inactive) | 0.305 µM (active) | > 100 µM (inactive) | > 100 µM (inactive) | > 100 µM (inactive) | > 100 µM (inactive) | > 100 µM (inactive) | > 100 µM (inactive) | > 100 µM (inactive) | > 100 µM (inactive) | > 100 µM (inactive) | > 100 µM (inactive) | > 100 µM (inactive) | > 100 µM (inactive)
13 | O=C(O)CCNc1[nH]cnc2ncnc1-2 | > 100 µM (inactive) | > 100 µM (inactive) | > 100 µM (inactive) | > 100 µM (inactive) | > 100 µM (inactive) | > 100 µM (inactive) | > 100 µM (inactive) | – | > 100 µM (inactive) | > 100 µM (inactive) | > 100 µM (inactive) | 0.621 µM (active) | > 100 µM (inactive) | > 100 µM (inactive) | > 100 µM (inactive) | > 100 µM (inactive) | > 100 µM (inactive) | > 100 µM (inactive) | > 100 µM (inactive) | > 100 µM (inactive)
14 | CC1OC(OC2C(O[C@H]3CC[C@@]4(C)C(=CC[C@H]5[C@@H]6C[C@@H]7O[C@]8(CC[C@H](C)CN8)[C@@H](C)[C@@H]7[C@@]6(C)CC[C@@H]54)C3)OC(CO)C(O)C2OC2OC(CO)C(O)C(O)C2O)C(O)C(O)C1O (some centres not stated) | 17.6 µM (inactive) | 17 µM (inactive) | 21.6 µM (inactive) | – | 14.7 µM (inactive) | 20 µM (inactive) | 18.4 µM (inactive) | 18.9 µM (inactive) | 17.4 µM (inactive) | 12.8 µM (inactive) | 16.4 µM (inactive) | – | 16.6 µM (inactive) | 18.4 µM (inactive) | 19.1 µM (inactive) | 14.5 µM (inactive) | 19.2 µM (inactive) | 17.3 µM (inactive) | 37.2 µM (inactive) | 18.2 µM (inactive)
